Patent publication US5086072A, “Treatment of mood disorders with functional antagonists of the glycine/NMDA receptor complex” (The United States of America as represented by the …, priority 1990, dated 1992)
Like-named read-outs stand apart in the source and are kept apart here.

Key:
[1] = forced swim test, duration of immobility during last 4 minutes of 6 minute swim; format: in vivo, mice (male NIH/HSD); details: for IMMOBILITY %: change versus control; for minimal effective dose: Mus musculus, read-out: minimum effective dose, swim-induced immobility
Experimental: (§1) Certain exemplary compounds encompassed hereby were evaluated pharmacologically in mice using the forced swim (8) and/or tail suspension (9) tests. These tests were initially designed to detect potential antidepressant agents (13, 14) based on the abilities of clinically effective antidepressants to reduce the immobility that animals typically display after active and unsuccessful escape attempts when subjected to these inescapable stressors. Moreover, the predictive validity (15) and pharmacological specificity (13, 14) of these tests has led to the proposal that they represent animal models of depression. (16)
The duration of immobility was measured during the […]
Values represent means ± standard error of the mean. The number of animals examined in the forced swim test was: VEH, 40; ACPC 25 mg/kg, 11 and 50-600 mg/kg, 10. In the open field, the number of animals tested was: VEH 23; 50 and 600 mg/kg, 5; and 100-400 mg/kg, 10. Male NIH/HSD mice (25-30 g) were injected i.p. with ACPC dissolved in saline. Controls received an equivalent volume of saline. […] (8) The ambulatory time in an open field was measured for five minutes, fifteen minutes after injection of ACPC as described in Table 1.
(§2) Glycine (800 mg/kg) or an equivalent volume of saline was administered intraperitoneally to NIH/HSD mice 45 minutes prior to ACPC (400 mg/kg). Fifteen minutes after ACPC administration, animals were evaluated in the forced swim test or in an open field as described in Table 1. This dose of glycine was selected based on a previous report (40), showing that parenteral administration of large doses is required to elevate cerebral levels of glycine. […] Amino acid levels were determined using HPLC/EC with an isocratic separation method and pre-column amino acid derivatization with o-pthalaldehyde and β-mercaptoethano (41).

[2] = format: in vivo, mice (male NIH/HSD); details: for ACTIVITY (time spent ambulating in an open field): mean ± SEM
Experimental: Values represent means ± standard error of the mean. The number of animals examined in the forced swim test was: VEH, 40; ACPC 25 mg/kg, 11 and 50-600 mg/kg, 10. In the open field, the number of animals tested was: VEH 23; 50 and 600 mg/kg, 5; and 100-400 mg/kg, 10. Male NIH/HSD mice (25-30 g) were injected i.p. with ACPC dissolved in saline. Controls received an equivalent volume of saline. Fifteen minutes later, mice were placed in a cylinder (diameter: 10 cm; height: 25 cm) filled with 6 cm of water (22°-25° C.) and the duration of immobility during the last four minutes of forced swim was measured as described. (8) The ambulatory time in an open field was measured for five minutes, fifteen minutes after injection of ACPC as described in Table 1.
as §2

[3] = forced swim and/or tail suspension tests (overall conclusion); format: in vivo, mice
Experimental: as §1

NMDA receptor complex = details: cited from earlier work
[4] = behavioral effects and lethality observed in connection with forced swim; details: for behavioral effects prior to forced swim: I2CA 25-200, HA-966 2.5-10, ACBC 50-100 mg/kg; for lethality combined with forced swim: I2CA 25-200, HA-966 2.5-10 mg/kg
Experimental: (§3) Inset: Effects of ACPC on tail suspension-induced immobility. Values are mean standard error of immobility (sec.) during a 6 minute test. The number of animals used in this test was: VEH, 16; ACPC, 200 mg/kg, 6; 300 mg/kg, 9 and 400 mg/kg, 7. Male C57Bl/6J mice [20-25 g](Jackson Laboratories, Bar Harbor, ME) were injected with ACPC. Fifteen minutes later, mice were suspended by the tail and the duration of immobility measured as described. […] 7-chlorokynurenic acid (25-150 mg/kg), indole2-carboxylic acid (I2CA) (25-200 mg/kg), 3-amino-1-hydroxypyrrolidone (HA-966) (2.5-10 mg/kg), cycloleucine (100-400 mg/kg) and 1-aminocyclobutanecarboxylic acid (ACBC) (50-100 mg/kg) were tested under identical conditions to those employed for the other agents (Table 1 and FIG. 1).

[5] = tail suspension test, duration of immobility; format: in vivo, mice (male C57Bl/6J); details: 200-400 mg/kg, 15 min before test; F(2,31)=29, p<0.0001
Experimental: as §3

[6] = ambulatory time in the open field (tail suspension study); format: in vivo, C57Bl/6J mice; details: 400 mg/kg
[7] = target: strychnine-insensitive glycine receptors; details: cited from earlier work
[8] = target: strychnine sensitive glycine receptors; details: cited from earlier work
[9] = test system: NMDA-gated cation channel; details: compared with glycine; cited from earlier work
[10] = cited from earlier work
[11] = cited from earlier work; remark: listed apart in the source
[12] = format: in vivo, mice (male NIH/HSD); details: for ACTIVITY (time spent ambulating in an open field): 30 min before test, mean ± SEM
[13] = 60 min after 800 mg/kg i.p.; data not shown
Experimental: as §2

[14] = 0.1 mg/kg i.p., 15 min before test
[15] = 0.5 mg/kg i.p., 15 min before test
[16] = 1 mg/kg i.p., 15 min before test
[17] = 7-chlorokynurenic acid 25-150, I2CA 25-200, HA-966 2.5-10, cycloleucine 100-400, ACBC 50-100 mg/kg

## C[C@]12N[C@H](Cc3ccccc31)c1ccccc12 (racemic) [MK-801, (+)-5-methyl-10,11-dihydro-5H-dibenzo[a,d]cycloheptene-5, 10-imine]
[1]; [14]
  IMMOBILITY %: -43%
[1]; 0.1 mg/kg i.p., 15 min before test, mean ± SEM
  IMMOBILITY: 80 ± 10 s
[1]; 0.5 mg/kg
  maximum reduction of duration of immobility: 92%
[1]; [15]
  IMMOBILITY %: -92%
[1]; 0.5 mg/kg i.p., 15 min before test, mean ± SEM
  IMMOBILITY: 11 ± 4 s
[1]; [16]
  IMMOBILITY %: -54%
[1]; 1 mg/kg i.p., 15 min before test, mean ± SEM
  IMMOBILITY: 64 ± 23 s
[1]; 0.1 and 1 mg/kg
  reduction of duration of immobility: 43-54%
[1]; biphasic, doses of Table 1
  effect on duration of immobility in the forced swim test: reduced significantly the duration of immobility
[2]; [14]
  ACTIVITY (time spent ambulating in an open field): 144 ± 4 s
[2]; 0.5 mg/kg
  increase in ambulatory time in an open field: 34%
[2]; 0.5 mg/kg i.p., 15 min before test, change versus control
  ACTIVITY %: +34%
[2]; [15]
  ACTIVITY (time spent ambulating in an open field): 201 ± 3 s
[2]; [16]
  ACTIVITY (time spent ambulating in an open field): 170 ± 14 s
[2]; 0.1 and 1 mg/kg
  effect on ambulatory time: did not alter ambulatory time
[3]
  activity in the antidepressant models: mimic clinically effective antidepressants in these models
NMDA receptor complex
  activity at the NMDA receptor complex: non-competitive NMDA antagonist

## O=C(O)c1cc(O)c2ccc(Cl)cc2n1 [7-chlorokynurenic acid]
[1]; [17]
  effect on immobility in the forced swim test: did not reduce immobility in the forced swim test

## NC1(C(=O)O)CCC1 [ACBC, 1-aminocyclobutanecarboxylic acid]
[1]; [17]
  effect on immobility in the forced swim test: did not reduce immobility in the forced swim test
[4]
  behavioral effects prior to forced swim: marked behavioral effects, including ataxia

## NC1(C(=O)O)CC1 [ACPC, 1-aminocyclopropanecarboxylic acid]
[1]
  minimal effective dose: 100 mg/kg
[1]; mouse, in vivo
  effect of glycine on the action of ACPC in the forced swim test: completely abolished
  effect on immobility in the forced swim test: reduced immobility in the forced swim test in a dosedependent fashion
  maximum reduction of immobility in the forced swim test: 65%
[1]; mouse, in vivo, 200 mg/kg
  further effect on immobility at higher doses: no further reductions in immobility
[2]; 600 mg/kg, F(5,60)=10, p<0.0001
  increase in ambulatory time: 29%
[2]; glycine 800 mg/kg i.p. 45 min prior to ACPC 400 mg/kg
  effect of glycine on the locomotor effects of ACPC in the open field: partial antagonism
[5]
  effect on immobility in the tail suspension test: reduction in immobility
[6]
  increase in ambulatory time in the open field: 18%
[3]
  activity in the antidepressant models: mimic clinically effective antidepressants in these models
[7]
  Ki: ~0.032 µM
  activity at the strychnine-insensitive glycine binding site: potent and selective partial agonist
[8]
  IC50: > 1000 µM
[9]
  efficacy in stimulating [3H]MK-801 binding: significantly less efficacious than glycine
[10]
  anticonflict actions in animal models: possesses anticonflict actions in animal models
[11]
  muscle relaxation or ataxia: do not produce the muscle relaxation or ataxia

## COC(=O)C1(N)CC1 [ACPCM, methyl 1-aminocyclopropanecarboxylate]
[1]; Table 2
  minimal effective dose: 50 mg/kg
[1]; Table 2, 25 mg/kg
  IMMOBILITY: 126 ± 8 s
  IMMOBILITY %: -8%
[1]; Table 2, 50 mg/kg
  IMMOBILITY: 89 ± 17 s
  IMMOBILITY %: -35%
[1]; Table 2, 100 mg/kg
  IMMOBILITY: 40 ± 18 s
  IMMOBILITY %: -71%
[1]; Table 2, 150 mg/kg
  IMMOBILITY: 69 ± 10 s
  IMMOBILITY %: -50%

## NC(CCCCCP(=O)(O)O)C(=O)O (stereo not drawn) [AP-7, 2-amino-7-phosphonoheptanoic acid]
[1]; 40 mg/kg i.p., 30 min before test, mean ± SEM
  IMMOBILITY: 141 ± 21 s
[1]; 80 mg/kg i.p., 30 min before test, mean ± SEM
  IMMOBILITY: 153 ± 9 s
[1]; 100 mg/kg i.p., 30 min before test
  IMMOBILITY %: -35%
[1]; 100 mg/kg i.p., 30 min before test, mean ± SEM
  IMMOBILITY: 93 ± 8 s
[1]; 200 mg/kg i.p., 30 min before test
  IMMOBILITY %: -62%
[1]; 200 mg/kg i.p., 30 min before test, mean ± SEM
  IMMOBILITY: 55 ± 13 s
[1]; F(4,71) = 17, p<0.0001
  effect on duration of immobility in the forced swim test: significant, dose dependent reduction in the duration of immobility
[2]; doses of Table 1
  effect on ambulatory time in an open field: without affecting ambulatory time
[3]
  activity in the antidepressant models: mimic clinically effective antidepressants in these models
[12]; 40 mg/kg i.p.
  ACTIVITY (time spent ambulating in an open field): 144 ± 5 s
[12]; 80 mg/kg i.p.
  ACTIVITY (time spent ambulating in an open field): 167 ± 16 s
[12]; 100 mg/kg i.p.
  ACTIVITY (time spent ambulating in an open field): 153 ± 5 s
[12]; 200 mg/kg i.p.
  ACTIVITY (time spent ambulating in an open field): 134 ± 10 s
NMDA receptor complex
  activity at the NMDA receptor complex: competitive antagonist

## NC1CCN(O)C1=O (stereo not drawn) [HA-966, 3-amino-1-hydroxypyrrolidone]
[1]; [17]
  effect on immobility in the forced swim test: did not reduce immobility in the forced swim test
[4]
  lethality combined with forced swim: lethal when combined with forced swim
  behavioral effects prior to forced swim: marked behavioral effects, including ataxia

## O=C(O)c1cc2ccccc2[nH]1 [I2CA, indole2-carboxylic acid]
[1]; [17]
  effect on immobility in the forced swim test: did not reduce immobility in the forced swim test
[4]
  lethality combined with forced swim: lethal when combined with forced swim
  behavioral effects prior to forced swim: marked behavioral effects, including ataxia

## NC1(C(=O)O)CCCC1 [cycloleucine]
[1]; [17]
  effect on immobility in the forced swim test: did not reduce immobility in the forced swim test

## NCC(=O)O [glycine]
[1]; mouse, in vivo
  intrinsic activity in the forced swim test: devoid of intrinsic activity
[13]
  concentrations of other amino acids (glutamate, serine, taurine, GABA, alanine) in the hippocampus: unchanged
[12]; mouse, in vivo
  intrinsic activity in the open field: devoid of intrinsic activity
